Measured values as given in patent publication US20150225377A1, “VEGFR3 INHIBITORS” (CANCER THERAPEUTICS CRC PTY LIMITED, priority 2012, published 2015).

Experiments:
[1] = molecular target: T1, VEGFR3 cytoplasmic domain (Homo sapiens, UniProt P35916); assay: VEGFR3 biochemical assay (AlphaScreen); conditions: GST-VEGFR3 cytoplasmic domain, 500 μM ATP (modified form: His-fusion, 1 μM ATP)
T1 construct: VEGFR3 cytoplasmic domain (amino acids 798-1298) was purchased as N-terminal GST-fusion protein; GST (N); purchased

P397Y-FAK = molecular target: T2, P397Y-FAK (Homo sapiens, UniProt Q05397); assay: P397Y-FAK inhibition MSD platform cellular biomarker assay; type: cell-based; conditions: MDA-231-LNA cells, 1 hour compound
T2 construct: endogenous in cells; host or cells: MDA-231-LNA
Experimental: 96-well plates (cat#MA6000, Meso Scale Discovery) are coated with 30 μL/well of mouse monoclonal FAK antibody [63D5] (cat#ab72140, Abcam) pre-diluted in PBS to a concentration of 1 mg/mL. The plates are sealed with adhesive film and incubated for 16 hours at 4° C. The antibody is then flicked out of the plates and 150 μL of 3% [w/v] Blocker A (cat#R93AA-1, Meso Scale Discovery) is added. The plates are resealed with adhesive film and incubated at room temperature on a shaker set at medium speed for 2 hours. The plates are then washed three times with a solution containing 50 mM Tris-HCl pH 7.5, 0.15 M NaCl and 0.02% Tween-20, before cell lysate addition described below.
Cells are split 1:2 into T150 cell culture flasks 2 days prior to compound treatment. On the day prior to compound treatment, 200 μL media containing 20,000 cells is seeded into all wells of white, clear-bottom, TC treated, pclear, 96-well microtitre plates (cat#655098, Greiner Bio-One), and the plates are incubated at 37° C. and 5% CO2 for […]. 1 pUwell of compound is then added from dilution series prepared in DMSO. Negative control wells receive the same volume of DMSO without compounds, and positive control wells receive 2 μM of a control compound in the same volume of DMSO. Cells are treated for 1 hour at 37° C. and 5% CO2. The media/compounds are then flicked off and 55 pUwell of ice-cold complete lysis buffer is added. Complete lysis buffer is prepared by adding 1 tablet PhosSTOP complete phosphatase inhibitor (cat#04906837001, Roche) and 1 tablet Complete, Mini, EDTA-free, protease inhibitor (cat#04693159001, Roche) per 10 mL of incomplete lysis buffer (150 mM NaCl, 20 mM Tris-HCl pH 7.5, 1 mM EDTA, 1 mM EGTA, 1% Triton-X 100). Plates are incubated on ice for 30 minutes, with 30 seconds high speed plate shaking every 5 minutes. 40 μL/well of cell lysate is transferred to the coated, blocked and washed 96-well microtitre plates described above. The 96-well plates are sealed with adhesive film and incubated for 16 hours at 4° C. The plates are then washed three times with a solution containing 50 mM Tris-HCl pH 7.5, 0.15 M NaCl and 0.02% Tween-20 and tapped dry. 25 μL/well of detection solution (1% [w/v] Blocker A (cat#R93AA-1, Meso Scale Discovery) in 50 mM Tris-HCl pH 7.5, 0.15 M NaCl and 0.02% Tween-20, with 1:600 rabbit polyclonal FAK phospho Y397 antibody (cat#ab39967, Abcam), 1:1000 anti-rabbit sulfo-tag antibody (cat#R32AB-1 Meso Scale Discovery) and 1:40 reconstituted Blocker D-M (cat#D609-0100, Rockland Immunochemicals for Research)) is added, and the plates resealed with adhesive film and incubated for 1 hour at room temperature on a plate shaker set to medium speed. Plates are then washed three times with a solution containing 50 mM Tris-HCl pH 7.5, 0.15 M NaCl and 0.02% Tween-20 and tapped dry. 150 μL/well of Read Buffer T+Surfactant (cat#R92TC-1, Meso Scale Discovery) is then added, and pFAK-397 levels quantified using a Meso Scale Discovery SECTOR Imager 6000 instrument.

T1 sequence (P35916 798-1298 isoform P35916-1): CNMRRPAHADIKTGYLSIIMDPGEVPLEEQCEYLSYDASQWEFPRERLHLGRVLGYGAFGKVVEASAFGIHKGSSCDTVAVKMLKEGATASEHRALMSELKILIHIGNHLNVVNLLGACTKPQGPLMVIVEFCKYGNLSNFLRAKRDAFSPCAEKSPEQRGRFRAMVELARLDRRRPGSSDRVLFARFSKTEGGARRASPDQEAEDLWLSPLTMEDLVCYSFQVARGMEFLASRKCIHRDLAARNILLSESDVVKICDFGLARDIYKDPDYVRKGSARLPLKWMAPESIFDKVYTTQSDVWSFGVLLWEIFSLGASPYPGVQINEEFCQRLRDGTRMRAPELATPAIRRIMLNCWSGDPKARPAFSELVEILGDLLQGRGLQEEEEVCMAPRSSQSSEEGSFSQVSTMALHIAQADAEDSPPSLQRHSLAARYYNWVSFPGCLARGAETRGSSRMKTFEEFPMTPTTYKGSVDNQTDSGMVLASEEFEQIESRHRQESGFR
T2 sequence (Q05397 2-1052 limits assumed, stated change not applied): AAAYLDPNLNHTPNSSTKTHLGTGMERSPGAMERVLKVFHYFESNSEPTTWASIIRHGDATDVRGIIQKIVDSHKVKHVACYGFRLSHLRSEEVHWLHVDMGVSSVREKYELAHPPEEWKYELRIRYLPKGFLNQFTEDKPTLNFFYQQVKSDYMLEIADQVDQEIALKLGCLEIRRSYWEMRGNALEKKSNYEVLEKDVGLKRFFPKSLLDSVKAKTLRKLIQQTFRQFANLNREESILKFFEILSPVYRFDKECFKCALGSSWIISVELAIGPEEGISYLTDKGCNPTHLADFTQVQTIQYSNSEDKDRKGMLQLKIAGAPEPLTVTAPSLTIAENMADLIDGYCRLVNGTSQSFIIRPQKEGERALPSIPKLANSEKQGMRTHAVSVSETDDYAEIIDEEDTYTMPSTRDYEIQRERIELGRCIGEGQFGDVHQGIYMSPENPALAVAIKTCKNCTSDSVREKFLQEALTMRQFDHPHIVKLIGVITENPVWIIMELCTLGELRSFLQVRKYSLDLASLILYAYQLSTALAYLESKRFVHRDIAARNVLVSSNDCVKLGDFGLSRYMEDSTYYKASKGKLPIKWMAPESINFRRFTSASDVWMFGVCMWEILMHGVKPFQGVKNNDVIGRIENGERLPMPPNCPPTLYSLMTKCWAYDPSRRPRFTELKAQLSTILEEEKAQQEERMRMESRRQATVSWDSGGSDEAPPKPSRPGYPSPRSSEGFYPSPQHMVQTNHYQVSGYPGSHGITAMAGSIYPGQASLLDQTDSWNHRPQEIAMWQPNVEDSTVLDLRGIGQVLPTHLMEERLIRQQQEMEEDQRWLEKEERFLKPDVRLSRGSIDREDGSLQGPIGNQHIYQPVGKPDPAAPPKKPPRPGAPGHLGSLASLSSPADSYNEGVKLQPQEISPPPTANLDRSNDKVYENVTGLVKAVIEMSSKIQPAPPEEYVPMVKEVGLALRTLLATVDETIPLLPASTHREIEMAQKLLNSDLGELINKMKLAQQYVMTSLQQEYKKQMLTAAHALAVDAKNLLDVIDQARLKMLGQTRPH

`Cc1cnc(Nc2ccc(N3CCNCC3)cc2)nc1CCc1ccccc1CC(N)=O` [Compound 2, 2-(2-(2-(5-methyl-2-((4-(piperazin-1-yl)phenyl)amino)pyrimidin-4-yl)ethyl)phenyl)acetamide] was tested, and the IC50 [1] was 39 nM.
For `NCc1ccc(Nc2ncc(C(F)(F)F)c(CCc3ccccc3CC(N)=O)n2)cc1` [Compound 3, 2-(2-(2-(2-((4-(Aminomethyl)phenyl)amino)-5-(trifluoromethyl)pyrimidin-4-yl)ethyl)phenyl)acetamide], the IC50 (P397Y-FAK) was 62 nM and the IC50 [1] was 97 nM.
Compound `Cc1cnc(Nc2ccc(C3CCNCC3)nc2)nc1CCc1ccccc1CC(N)=O` [Compound 4, 2-(2-(2-(5-methyl-2-((6-(piperidin-4-yl)pyridin-3-yl)amino)pyrimidin-4-yl)ethyl)phenyl)acetamide] has an IC50 [1] of 35 nM.
`Cc1cnc(Nc2ccc(C3CCN(C)CC3)nc2)nc1CCc1ccccc1CC(N)=O` [Compound 5, 2-(2-(2-(5-methyl-2-((6-(1-methylpiperidin-4-yl)pyridin-3-yl)amino)pyrimidin-4-yl)ethyl)phenyl)acetamide] gave an IC50 (P397Y-FAK) of over 2000 nM and an IC50 [1] of 28 nM.
Compound `NC(=O)Cc1ccccc1CCc1nc(Nc2ccc(C(=O)N3CCNCC3)cc2)ncc1C(F)(F)F` [Compound 6, 2-(2-(2-(2-((4-(piperazine-1-carbonyl)phenyl)amino)-5-(trifluoromethyl)pyrimidin-4-yl)ethyl)phenyl)acetamide] has an IC50 (P397Y-FAK) of 940 nM and an IC50 [1] of 23 nM.
`Cc1cc(Nc2ncc(C(F)(F)F)c(CCc3ccccc3CC(N)=O)n2)ccc1C1CCNCC1` [Compound 11, 2-(2-(2-(2-((3-methyl-4-(piperidin-4-yl)phenyl)amino)-5-(trifluoromethyl)pyrimidin-4-yl)ethyl)phenyl)acetamide] was tested, and the IC50 (P397Y-FAK) was 16 nM and the IC50 [1] was 26 nM.
`Cc1cc(Nc2ncc(C(F)(F)F)c(CCc3ccccc3CC(N)=O)n2)ccc1C1CCN(C)CC1` [Compound 12, 2-(2-(2-(2-((3-methyl-4-(1-methylpiperidin-4-yl)phenyl)amino)-5-(trifluoromethyl)pyrimidin-4-yl)ethyl)phenyl)acetamide] was tested, and the IC50 (P397Y-FAK) was 30 nM and the IC50 [1] was 20 nM.
In the case of `Cc1cnc(Nc2ccc(C3CCNCC3)cc2)nc1CCc1ccccc1CC(N)=O` [Compound 16, 2-(2-(2-(5-methyl-2-((4-(piperidin-4-yl)phenyl)amino)pyrimidin-4-yl)ethyl)phenyl)acetamide], the IC50 (P397Y-FAK) is reported as over 2000 nM and the IC50 [1] is reported as 22 nM.
`CC(N)c1ccc(Nc2ncc(C(F)(F)F)c(CCc3ccccc3CC(N)=O)n2)cc1` (stereo not drawn) [Compound 18, 2-(2-(2-(2-(4-(1-aminoethyl)phenylamino)-5-(trifluoromethyl)pyrimidin-4-yl)ethyl)phenyl)acetamide] showed an IC50 (P397Y-FAK) of 25 nM and an IC50 [1] of 46 nM.
For `Cc1cnc(Nc2cccnc2)nc1CCc1ccccc1CC(N)=O` [Compound 24, 2-(2-(2-(5-methyl-2-(pyridin-3-ylamino)pyrimidin-4-yl)ethyl)phenyl)acetamide], the IC50 (P397Y-FAK) was over 2000 nM and the IC50 [1] was 34 nM.
`Cc1cnc(Nc2ccc(OC3CCNCC3)cc2)nc1CCc1ccccc1CC(N)=O` [Compound 26, 2-(2-(2-(5-methyl-2-((4-(piperidin-4-yloxy)phenyl)amino)pyrimidin-4-yl)ethyl)phenyl)acetamide] gave an IC50 (P397Y-FAK) of over 2000 nM and an IC50 [1] of 24 nM.
`Cc1cnc(Nc2cnn(C)c2)nc1CCc1ccccc1CC(N)=O` [Compound 28, 2-(2-(2-(5-methyl-2-((1-methyl-^1H-pyrazol-4-yl)amino)pyrimidin-4-yl)ethyl)phenyl)acetamide] was tested, and the IC50 (P397Y-FAK) was over 2000 nM and the IC50 [1] was 24 nM.
Compound `Cc1cnc(Nc2ccc(C3(N)COC3)cc2)nc1CCc1ccccc1CC(N)=O` [Compound 31, 2-(2-(2-(2-(4-(3-aminooxetan-3-yl)phenylamino)-5-methylpyrimidin-4-yl)ethyl)phenyl)acetamide] has an IC50 (P397Y-FAK) of over 2000 nM and an IC50 [1] of 23 nM.
Work on `Cc1cnc(Nc2cnn(C3CCNCC3)c2)nc1CCc1ccccc1CC(N)=O` [Compound 33, 2-(2-(2-(5-Methyl-2-((1-(piperidin-4-yl)-^1H-pyrazol-4-yl)amino)pyrimidin-4-yl)ethyl)phenyl)acetamide] yielded an IC50 (P397Y-FAK) of over 2000 nM and an IC50 [1] of 28 nM.
For `CC(N)c1ccc(Nc2ncc(Cl)c(CCc3ccccc3CC(N)=O)n2)cc1` (stereo not drawn) [Compound 37, 2-(2-(2-(2-(4-(1-aminoethyl)phenylamino)-5-chloropyrimidin-4-yl)ethyl)phenyl)acetamide], the IC50 [1] was 12 nM.
